Data: patent publication US20100099561A1, “HETEROBICYCLIC ALKYLTHIO-BRIDGED ISOXAZOLINES” (E.I. DU PONT DE NEMOURS AND COMPANY, priority 2008, published 2010)

Tests used:
Assay type in all cases: in vivo
[1] = test system: rice (Oryza sativa); test: Test B flooded paddy test, rice; settings: Flood, scale 0 to 100
In short: (§1)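 2-leaf plants; pots flooded 3 cm above soil; compound added to paddy water; depth maintained. Greenhouse 13–15 d. Visual rating vs controls, 0 (no effect) to 100 (complete control); dash = no result.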

[2] = test system: pigweed (Amaranthus retroflexus); test: Test A postemergence, pigweed; settings: 0 to 100 scale (0 no effect, 100 complete control)
In short: (§2)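 Greenhouse pre/postemergence test, loam–sand soil. Postemergence plants one- to two-leaf, 2–10 cm. Visual injury rating ~10 d after treatment, 0–100 vs untreated.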

[3] = test system: barnyardgrass (Echinochloa crus-galli); test: Test A postemergence, barnyardgrass; settings: 0 to 100 scale (0 no effect, 100 complete control)
In short: as §2

[4] = test system: giant foxtail (Setaria faberi); test: Test A preemergence, giant foxtail; settings: 0 to 100 scale (0 no effect, 100 complete control)
In short: as §2

[5] = test system: velvetleaf (Abutilon theophrasti); test: Test A preemergence, velvetleaf; settings: 0 to 100 scale (0 no effect, 100 complete control)
In short: as §2

[6] = test system: corn (Zea mays); test: Test A postemergence, corn; settings: 0 to 100 scale (0 no effect, 100 complete control)
In short: as §2

[7] = test system: large crabgrass (Digitaria sanguinalis); test: Test A postemergence, large crabgrass; settings: 0 to 100 scale (0 no effect, 100 complete control)
In short: as §2

[8] = test system: velvetleaf (Abutilon theophrasti); test: Test A postemergence, velvetleaf; settings: 0 to 100 scale (0 no effect, 100 complete control)
In short: as §2

[9] = test system: corn (Zea mays); test: Test A preemergence, corn; settings: 0 to 100 scale (0 no effect, 100 complete control)
In short: as §2

[10] = test system: wheat (Triticum aestivum); test: Test A preemergence, wheat; settings: 0 to 100 scale (0 no effect, 100 complete control)
In short: as §2

[11] = test system: barnyardgrass (Echinochloa crus-galli); test: Test A preemergence, barnyardgrass; settings: 0 to 100 scale (0 no effect, 100 complete control)
In short: as §2

[12] = test system: large crabgrass (Digitaria sanguinalis); test: Test A preemergence, large crabgrass; settings: 0 to 100 scale (0 no effect, 100 complete control)
In short: as §2

[13] = test system: ducksalad (Heteranthera limosa); test: Test B flooded paddy test, ducksalad; settings: Flood, scale 0 to 100
In short: as §1

[14] = test system: umbrella sedge (Cyperus difformis); test: Test B flooded paddy test, umbrella sedge; settings: Flood, scale 0 to 100
In short: as §1

[15] = test system: morningglory (Ipomoea spp.); test: Test A postemergence, morningglory; settings: 0 to 100 scale (0 no effect, 100 complete control)
In short: as §2

[16] = test system: morningglory (Ipomoea spp.); test: Test A preemergence, morningglory; settings: 0 to 100 scale (0 no effect, 100 complete control)
In short: as §2

[17] = test system: barnyardgrass (Echinochloa crus-galli); test: Test B flooded paddy test, barnyardgrass; settings: Flood
In short: as §1

[18] = test system: wheat (Triticum aestivum); test: Test A postemergence, wheat; settings: 0 to 100 scale (0 no effect, 100 complete control)
In short: as §2

[19] = test system: pigweed (Amaranthus retroflexus); test: Test A preemergence, pigweed; settings: 0 to 100 scale (0 no effect, 100 complete control)
In short: as §2

[20] = test system: giant foxtail (Setaria faberi); test: Test A postemergence, giant foxtail; settings: 0 to 100 scale (0 no effect, 100 complete control)
In short: as §2

[21] = 250 g ai/ha, scale 0 to 100 (0 no effect, 100 complete control)

CC1(C)CC(S(=O)(=O)Cc2c(C(F)(F)F)nc3ccon3c2=O)=NO1 [Compound 42]
10: Plant response rating, Pigweed ([2]; 500 g ai/ha)
70: Plant response rating, Barnyardgrass ([3]; 125 g ai/ha) | Plant response rating, Crabgrass, Large ([7]; 500 g ai/ha)
60: Plant response rating, Foxtail, Giant ([4]; 125 g ai/ha) | Plant response rating, Foxtail, Giant ([20]; 125 g ai/ha)
50: Plant response rating, Crabgrass, Large ([7]; 125 g ai/ha) | Plant response rating, Crabgrass, Large ([12]; 125 g ai/ha)
0: Plant response rating, Rice ([1]; 31 g ai/ha) | Plant response rating, Rice ([1]; 62 g ai/ha) | Plant response rating, Rice ([1]; 125 g ai/ha) | Plant response rating, Rice ([1]; 250 g ai/ha) | Plant response rating, Pigweed ([2]; 125 g ai/ha) | Plant response rating, Velvetleaf ([5]; 125 g ai/ha) | Plant response rating, Velvetleaf ([5]; 500 g ai/ha) | Plant response rating, Corn ([6]; 125 g ai/ha) | Plant response rating, Corn ([6]; 500 g ai/ha) | Plant response rating, Velvetleaf ([8]; 125 g ai/ha) | Plant response rating, Velvetleaf ([8]; 500 g ai/ha) | Plant response rating, Corn ([9]; 125 g ai/ha) | Plant response rating, Corn ([9]; 500 g ai/ha) | Plant response rating, Wheat ([10]; 125 g ai/ha) | Plant response rating, Wheat ([10]; 500 g ai/ha) | Plant response rating, Ducksalad ([13]; 31 g ai/ha) | Plant response rating, Ducksalad ([13]; 62 g ai/ha) | Plant response rating, Ducksalad ([13]; 125 g ai/ha) | Plant response rating, Ducksalad ([13]; 250 g ai/ha) | Plant response rating, Sedge, Umbrella ([14]; 31 g ai/ha) | Plant response rating, Sedge, Umbrella ([14]; 62 g ai/ha) | Plant response rating, Sedge, Umbrella ([14]; 125 g ai/ha) | Plant response rating, Sedge, Umbrella ([14]; 250 g ai/ha) | Plant response rating, Morningglory ([15]; 125 g ai/ha) | Plant response rating, Morningglory ([15]; 500 g ai/ha) | Plant response rating, Morningglory ([16]; 125 g ai/ha) | Plant response rating, Morningglory ([16]; 500 g ai/ha) | Plant response rating, Barnyardgrass ([17]; 31 g ai/ha, scale 0 to 100) | Plant response rating, Barnyardgrass ([17]; 62 g ai/ha, scale 0 to 100) | Plant response rating, Barnyardgrass ([17]; 125 g ai/ha, scale 0 to 100) | Plant response rating, Barnyardgrass [17, 21] | Plant response rating, Wheat ([18]; 125 g ai/ha) | Plant response rating, Pigweed ([19]; 125 g ai/ha)
80: Plant response rating, Barnyardgrass ([3]; 500 g ai/ha) | Plant response rating, Barnyardgrass ([11]; 500 g ai/ha) | Plant response rating, Crabgrass, Large ([12]; 500 g ai/ha) | Plant response rating, Foxtail, Giant ([20]; 500 g ai/ha)
90: Plant response rating, Foxtail, Giant ([4]; 500 g ai/ha)
20: Plant response rating, Wheat ([18]; 500 g ai/ha)
30: Plant response rating, Barnyardgrass ([11]; 125 g ai/ha) | Plant response rating, Pigweed ([19]; 500 g ai/ha)

CC1(C)CC([S+]([O-])Cc2c(C(F)(F)F)nc3ccon3c2=O)=NO1 (stereo not drawn) [Compound 43]
70: Plant response rating, Barnyardgrass ([3]; 500 g ai/ha) | Plant response rating, Barnyardgrass ([11]; 500 g ai/ha) | Plant response rating, Foxtail, Giant ([20]; 500 g ai/ha)
25: Plant response rating, Ducksalad ([13]; 250 g ai/ha)
80: Plant response rating, Foxtail, Giant ([4]; 500 g ai/ha)
30: Plant response rating, Sedge, Umbrella ([14]; 250 g ai/ha) | Plant response rating, Foxtail, Giant ([20]; 125 g ai/ha)
40: Plant response rating, Barnyardgrass ([3]; 125 g ai/ha) | Plant response rating, Corn ([6]; 500 g ai/ha) | Plant response rating, Morningglory ([15]; 500 g ai/ha)
20: Plant response rating, Sedge, Umbrella ([14]; 125 g ai/ha)
0: Plant response rating, Rice ([1]; 31 g ai/ha) | Plant response rating, Rice ([1]; 62 g ai/ha) | Plant response rating, Rice ([1]; 125 g ai/ha) | Plant response rating, Rice ([1]; 250 g ai/ha) | Plant response rating, Pigweed ([2]; 125 g ai/ha) | Plant response rating, Pigweed ([2]; 500 g ai/ha) | Plant response rating, Foxtail, Giant ([4]; 125 g ai/ha) | Plant response rating, Velvetleaf ([5]; 125 g ai/ha) | Plant response rating, Velvetleaf ([5]; 500 g ai/ha) | Plant response rating, Corn ([6]; 125 g ai/ha) | Plant response rating, Velvetleaf ([8]; 125 g ai/ha) | Plant response rating, Velvetleaf ([8]; 500 g ai/ha) | Plant response rating, Corn ([9]; 125 g ai/ha) | Plant response rating, Corn ([9]; 500 g ai/ha) | Plant response rating, Wheat ([10]; 125 g ai/ha) | Plant response rating, Wheat ([10]; 500 g ai/ha) | Plant response rating, Crabgrass, Large ([12]; 125 g ai/ha) | Plant response rating, Ducksalad ([13]; 31 g ai/ha) | Plant response rating, Ducksalad ([13]; 62 g ai/ha) | Plant response rating, Ducksalad ([13]; 125 g ai/ha) | Plant response rating, Sedge, Umbrella ([14]; 31 g ai/ha) | Plant response rating, Sedge, Umbrella ([14]; 62 g ai/ha) | Plant response rating, Morningglory ([15]; 125 g ai/ha) | Plant response rating, Morningglory ([16]; 125 g ai/ha) | Plant response rating, Morningglory ([16]; 500 g ai/ha) | Plant response rating, Barnyardgrass ([17]; 31 g ai/ha, scale 0 to 100) | Plant response rating, Barnyardgrass ([17]; 62 g ai/ha, scale 0 to 100) | Plant response rating, Barnyardgrass ([17]; 125 g ai/ha, scale 0 to 100) | Plant response rating, Barnyardgrass [17, 21] | Plant response rating, Wheat ([18]; 125 g ai/ha) | Plant response rating, Wheat ([18]; 500 g ai/ha) | Plant response rating, Pigweed ([19]; 125 g ai/ha) | Plant response rating, Pigweed ([19]; 500 g ai/ha)
60: Plant response rating, Crabgrass, Large ([7]; 500 g ai/ha) | Plant response rating, Crabgrass, Large ([12]; 500 g ai/ha)
10: Plant response rating, Crabgrass, Large ([7]; 125 g ai/ha) | Plant response rating, Barnyardgrass ([11]; 125 g ai/ha)
